Test results from the supplement of paper PMC7600603.

Assays:
DLD1 NRF2-GOF [1] = experiment: drug sensitivity score (DSS) cytotoxicity (DSS score); higher = more toxic; extreme values may be limits of the assay; conditions: 72 h; CellTox Green cytotoxicity
How it was run: (§1)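 Isogenic DLD1 colorectal cancer cells, either NRF2 wild-type or CRISPR gain-of-function, were grown in DMEM with 10% FBS. They were exposed in 384-well plates to library compounds at 5 concentrations spanning a 10,000-fold range. After 72 h, cytotoxicity was read by CellTox Green on a Pherastar FS reader and normalised to vehicle wells and 100-μM positive-control wells. TC50 and drug sensitivity score (a normalised area under the curve) came from logistic dose-response fits.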

DLD1 NRF2-WT [2] = experiment: as above; conditions: 72 h; CellTox Green cytotoxicity
How it was run: as §1

DLD1 NRF2-GOF [3] = experiment: TC50 cytotoxicity; higher = less toxic; conditions: 72 h; CellTox Green cytotoxicity
How it was run: as §1

DLD1 NRF2-WT [4] = experiment: TC50 cytotoxicity; higher = less toxic; conditions: 72 h; CellTox Green cytotoxicity
How it was run: as §1

DLD1 NRF2-GOF [5] = experiment: drug sensitivity score (DSS) viability (DSS score); higher = more sensitive; extreme values may be limits of the assay; conditions: 72 h; CellTiter-Glo viability
How it was run: (§2)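 EC50 and drug sensitivity score, the latter a normalised area under the curve, were calculated from logistic dose-response fits. The fits had four parameters and used CellTiter-Glo viability data read on a Pherastar FS reader 72 h after treatment, normalised to vehicle wells and 100-μM positive-control wells. Treated cells were isogenic DLD1 colorectal cancer cells, NRF2 wild-type or CRISPR gain-of-function, exposed in 384-well plates to library compounds at 5 concentrations spanning a 10,000-fold range.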

DLD1 NRF2-WT [6] = experiment: as above; conditions: 72 h; CellTiter-Glo viability
How it was run: as §2

DLD1 NRF2-GOF [7] = conditions: 72 h; CellTiter-Glo viability
How it was run: as §2

DLD1 NRF2-WT [8] = conditions: 72 h; CellTiter-Glo viability
How it was run: as §2

Structure (SMILES) | drug sensitivity score (DLD1 NRF2-GOF [1]) | drug sensitivity score (DLD1 NRF2-WT [2]) | TC50 cytotoxicity (DLD1 NRF2-GOF [3]) | TC50 cytotoxicity (DLD1 NRF2-WT [4]) | drug sensitivity score (DLD1 NRF2-GOF [5]) | drug sensitivity score (DLD1 NRF2-WT [6]) | EC50 viability (DLD1 NRF2-GOF [7]) | EC50 viability (DLD1 NRF2-WT [8])
CC(C)(C)C[C@@H]1N[C@@H](C(=O)N[C@H]2CC[C@H](O)CC2)[C@H](c2cccc(Cl)c2F)[C@]12C(=O)Nc1cc(Cl)ccc12 | 0 | 0 | > 10000 nM | > 10000 nM | 1.5 | 4.4 | 3610 nM | 1930 nM
CCNC(=O)C[C@@H]1N=C(c2ccc(Cl)cc2)c2cc(OC)ccc2-n2c(C)nnc21 | 0 | 0 | > 10000 nM | > 10000 nM | 0.1 | 5.2 | > 10000 nM | 1090 nM
CC[C@@H]1[C@H](F)C(=O)N[C@@H]1COc1nccc2cc(C(N)=O)c(OC)cc12 | 0 | 0 | > 10000 nM | > 10000 nM | 2.4 | 0.5 | > 10000 nM | > 10000 nM
CCc1cncnc1N1CCN(Cc2nc3cc(C(F)(F)F)ccc3[nH]2)CC1 | 0 | 0 | > 10000 nM | > 10000 nM | 3 | 4.6 | 1530 nM | 1510 nM
CCn1c(-c2nonc2N)nc2c(C#CC(C)(C)O)ncc(OC[C@H]3CCCNC3)c21 | 0 | 0 | > 10000 nM | > 10000 nM | 2.4 | 4.3 | 2870 nM | 1500 nM
CCn1c(-c2nonc2N)nc2cnc(Oc3cccc(NC(=O)c4ccc(OCCN5CCOCC5)cc4)c3)cc21 | 6.1 | 1.2 | 1550 nM | > 10000 nM | 6.3 | 5.4 | 2300 nM | 1990 nM
CCn1c(C(=O)N(C2CC2)C2CC2)cc2c3c(ncn3C)c(Nc3cc(C)n(C)n3)nc21 | 0 | 0 | > 10000 nM | > 10000 nM | 7.1 | 7.2 | 1170 nM | 218 nM
CCn1cc(-c2ccnc3[nH]c(-c4cccc(CN(C)C)c4)cc23)c(-c2ccc(NC(=O)N(C)C)cc2)n1 | 1.6 | 0 | > 1000 nM | > 1000 nM | 4.4 | 2.8 | 45.2 nM | 172 nM
CN(c1ncccc1CNc1nc(Nc2ccc3c(c2)CC(=O)N3)ncc1C(F)(F)F)S(C)(=O)=O | 0 | 0 | > 10000 nM | > 10000 nM | 4.1 | 6.7 | 3700 nM | 2290 nM
CN1CCN(C2CCC(n3cc(-c4ccc(Oc5ccccc5)cc4)c4c(N)ncnc43)CC2)CC1 (stereo unspecified) | 5.3 | 4.5 | 3090 nM | 3230 nM | 5.4 | 8.8 | 3270 nM | 1710 nM
CNC(=O)c1ccc(C)c(-n2c(C)cc(OCc3ccc(F)cc3F)c(Br)c2=O)c1 | 0 | 0 | > 1000 nM | > 1000 nM | 0 | 1.3 | > 1000 nM | > 1000 nM
CNc1ncc2cc(-c3cc(NC(=O)NCCC(C)(C)C)c(F)cc3C)c(C)nc2n1 | 0 | 0 | > 10000 nM | > 10000 nM | 6.4 | 9.9 | 718 nM | 496 nM
CO[C@@H](C)Cn1c(=O)n(C)c2cnc3ccc(-c4cncc(C(C)(C)O)c4)cc3c21 | 0 | 0 | > 2500 nM | > 2500 nM | 9.5 | 10.5 | 194 nM | 171 nM
C[C@@H](Oc1ccc2[nH]nc(/C=C/c3cnn(CCO)c3)c2c1)c1c(Cl)cncc1Cl | 0 | 0 | > 1000 nM | > 1000 nM | 2 | 1.4 | > 1000 nM | > 1000 nM
C[C@@]1(C(=O)Nc2ccc(F)nc2)CCCN1c1nc(Nc2cc(C3CC3)n[nH]2)c2cccn2n1 | 11 | 6.3 | 319 nM | 326 nM | 14.8 | 13 | 279 nM | 252 nM
C[C@H]1Oc2cc(cnc2N)-c2c(nn(C)c2C#N)CN(C)C(=O)c2ccc(F)cc21 | 0 | 0 | > 1000 nM | > 1000 nM | 1.6 | 0 | > 1000 nM | > 1000 nM
Cc1ncc(Cl)cc1NCc1ccc(C(=O)N[C@@H](CC2CCCC2)C(=O)NC2CC2)s1 | 0 | 0 | > 5000 nM | > 5000 nM | 0 | 4 | > 5000 nM | 401 nM
NC[C@@](O)(c1ccc(Cl)cc1)c1ccc(-c2cn[nH]c2)cc1 | 0 | 0 | > 10000 nM | > 10000 nM | 10.6 | 10.8 | 435 nM | 1 nM
O=C(NC[C@H](O)CN1CCc2ccccc2C1)c1cc(NC2COC2)ncn1 | 0 | 0 | > 10000 nM | > 10000 nM | 2.4 | 3 | > 10000 nM | > 10000 nM
O=C(NCc1ccncc1)C12CC3CC(C1)CC(c1ccc(Cl)cc1)(C3)C2 | 0.3 | 0 | > 50000 nM | > 50000 nM | 9 | 8.7 | 4090 nM | 5140 nM
O=C(O)c1ccc(-c2c[nH]c3ncc(-c4ccccc4)cc23)cc1C1CCCC1 | 2 | 0.4 | 3470 nM | > 10000 nM | 6.6 | 12.1 | 908 nM | 38.1 nM
COC12C(COC(N)=O)C3=C(C(=O)C(C)=C(N)C3=O)N1CC1NC12 (stereo in doubt) [Mitomycin C] | 0 | 0 | > 10000 nM | > 10000 nM | 4 | 0 | 1700 nM | > 10000 nM
